From patent US11260100B2, “Compositions targeting the interaction domain between p27Kip1 and Brk and methods of use thereof to inhibit p27 Y phosphorylation and cdk4 activity” (The Research Foundation for the State University of New York, priority 2014, dated 2022) come the findings set out here.

The target of one assay is T1, cdk2 (Homo sapiens, UniProt P24941).
T1 construct: added to or expressed in MCF7 breast cancer cells on day 2 post plating; endogenous in cells; host or cells: MCF7 (ALT-MCF7 tetracycline-inducible line)
Put plainly: Immunoblot of cdk2T160 as measure of activated cdk2 (FIG. 10). The assay is classed as cell-based. As to conditions: MCF7, drugs at IC50. As to the method: FIG. 10: ALT BRK inhibits both CDK4 and CDK2. ALT, Palbociclib alone or in combination were added to or expressed in MCF7 breast cancer cells on day 2 post plating. Drugs were added at their IC50 concentration, based on previous results. ALT is expressed from an ALT-MCF7 tetracycline inducible cell line generated in the Blain lab. When tetracycline is added to the cell culture media, ALT is expressed in these cells. Vector: no tetracycline was added, so no ALT induction was detected. Drugs and media were replaced every two days. Cells were harvested every two days, lysed and used in immunoblot analysis. Actin: loading control. pRBser780 is a phospho-specific antibody that recognizes sites phosphorylated by cdk4, so is a measure of active cdk4. cdk2T160 recognizes a required phosphorylation event on residue […] and is a measure of activated cdk2.
(§1) Additional experiments were performed assessing activity of Brk in combination with Palbociclib. The data presented in FIGS. 9A and 9B reveal that Palbociclib and Brk inhibit proliferation for 2 days, and then resistance is observed (proliferation increases). Alt maintained arrest for roughly 10 days (50% inhibition of proliferation is detected). […] Alt-Brk/Palbociclib combination leads to a more durable cell cycle arrest. Mono therapy treated cells start to become resistant between day 8-10. […]

A further assay relates to MCF7 breast cancer cells. As to the kind of experiment: Proliferation with ALT and Palbociclib at IC50 concentration (FIG. 9). As to conditions: drugs at IC50 concentration, replaced every two days. The assay is classed as cell-based, human. As to the method: FIGS. 9A-9B: AltBrk Synergizes with Palbociclib. ALT, Palbociclib, or Brk alone or in combination were added to or expressed in MCF7 breast cancer cells on day 2 post plating. Drugs were added at their IC50 concentration, based on previous results. ALT is expressed from an ALT-MCF7 tetracycline inducible cell line generated in the Blain lab. When tetracycline is added to the cell culture media, ALT is expressed in these cells. Vector: no tetracycline was added, so no ALT induction was detected. (FIG. 9A) Cells were harvested and counted every two days, as a measure of proliferation. Proliferation is plotted as a percentage relative to that seen in the DMSO treated control. Drugs and media were replaced every two days. (FIG. 9B) Viability was measured by trypan blue staining, and plotted relative to viability seen in the DMSO treated control.
as §1

Another assay relates to MB 231 (TNBC). Put plainly: Palbociclib sensitivity of breast cancer line. The assay is classed as cell-based. As to conditions: Homo sapiens; MB 231, moderate-responder.
For the next assay, the system named is MCF10A. As to the kind of experiment: PD0332991 inhibitor treatment, proliferation by cell counting. As to conditions: Homo sapiens, MCF-10A, 48 h post treatment, read-out: IC50 (concentration needed to inhibit proliferation by 50%). The assay is classed as cell-based. On the procedure:
Immunoprecipitation with IgG served as a negative control (FIG. 6C). DNA with Hoechst stain is in blue and is merged with red and green staining (FIG. 6D). (FIG. 6E) Cdk4 was immunoprecipitated from the lysates and recombinant Rb was added to perform an in vitro kinase assay in the presence of ATP Immunoblot analysis was performed to probe for Rb, Ser780 pRb and cdk4 Immunoprecipitation with IgG served as a negative control. (FIG. 6F) Cells were treated with different concentrations of PD0332291 or DMSO as a control at Day 2. Total cell numbers were analyzed by counting 24 and 48 hours post treatment to determine IC50 values. (FIG. 6G) Cells were treated with different concentration of PD032291 or DMSO and analyzed by PI staining and FACS analysis. % G1 content is plotted.
The PCR fragments were ligated to the T7pGEMEX human His-p27 or T7pGEMEX human Flag-p27 plasmid for expression in E. coli. Mutants Y74F, Y88F, and Y88/89F were previously described (12). Flag-tagged p27 mutants were purified by Flag-immunoprecipitation with Flag antibody (M-2, Sigma F-18C9) and eluted with Flag peptide (Sigma F-4799) according to manufacturer's protocol. His-tagged p27 mutants were purified by FPLC via his-trap affinity chromatography (His-Trap HP, GE Healthcare 71-5247-01). The affinity column was stripped according to manufacturer's protocol, then washed with 5 column volumes of 100 mM CoCl2. The crude material was applied with a loading buffer consisting of 6 M urea, 500 mM NaCl, 50 mM Tris-HCl, pH 7.5 and 20% glycerol. The material was washed with 500 mM NaCl, 50 mM Tris-HCl, pH 7.5 and 10% glycerol. The purified material was eluted with 500 mM imidazole,20 mM Hepes pH 7.4 and 1 M KCl. The protein was then dialyzed overnight in a solution of 25 mM Hepes pH 7.7, 150 mM NaCl, 5 mM MgCl2 and 0.05% NP40.

In the case of `CC(=O)c1c(C)c2cnc(Nc3ccc(N4CCNCC4)cn3)nc2n(C2CCCC2)c1=O` [PD0332991], the “cdk2 activity (cdk2T160)” value at cdk2 is given as “does not inhibit cdk2”. In addition, the “duration of proliferation inhibition / arrest” value with MCF7 breast cancer cells was determined as 2 days. In addition, the IC50 with MB 231 (TNBC) is 400 nM; in the assay on MCF10A, 110 nM.
